Measurements as given in ChEMBL document CHEMBL1201862, “PubChem BioAssay data set” (2004).
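All cell lines were grown in 96-well plates and treated with compound for 48 hours. GI50 marks 50% less growth.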 The source made the active and inactive calls. Rule as the data show it: active = GI50 up to about 1.1 µM and inactive = higher.

Columns and labels:
Assay in all cases: inhibition of tumour cell growth, NCI panel, 48 h
786-0 = test system: 786-0
A498 = test system: A498
A549 = test system: A549
ACHN = test system: ACHN
CCRF-CEM = test system: CCRF-CEM
COLO 205 = test system: COLO 205
DLD-1 = test system: DLD-1
DMS-114 = test system: DMS-114
DMS-273 = test system: DMS-273
EKVX = test system: EKVX
HCC 2998 = test system: HCC 2998
HCT-116 = test system: HCT-116
HCT-15 = test system: HCT-15
HL-60 = test system: HL-60
HOP-18 = test system: HOP-18
HOP-62 = test system: HOP-62
HOP-92 = test system: HOP-92
HT-29 = test system: HT-29
IGROV-1 = test system: IGROV-1
K562 = test system: K562
KM-20L2 = test system: KM-20L2
KM12 = test system: KM12
LOX IMVI = test system: LOX IMVI
LXFL 529 = test system: LXFL 529
M14 = test system: M14
M19-MEL = test system: M19-MEL
MOLT-4 = test system: MOLT-4
Malme-3M = test system: Malme-3M
NCI-H226 = test system: NCI-H226
NCI-H23 = test system: NCI-H23
NCI-H460 = test system: NCI-H460
NCI-H522 = test system: NCI-H522
OVCAR-3 = test system: OVCAR-3
OVCAR-4 = test system: OVCAR-4
OVCAR-5 = test system: OVCAR-5
OVCAR-8 = test system: OVCAR-8
RPMI-8226 = test system: RPMI-8226
RXF 393 = test system: RXF 393
SF-268 = test system: SF-268
SF-295 = test system: SF-295
SF-539 = test system: SF-539
SK-MEL-28 = test system: SK-MEL-28
SK-MEL-2 = test system: SK-MEL-2
SK-MEL-5 = test system: SK-MEL-5
SK-OV-3 = test system: SK-OV-3
SN12C = test system: SN12C
SNB-19 = test system: SNB-19
SNB-75 = test system: SNB-75
SNB-78 = test system: SNB-78
SR = test system: SR
SW-620 = test system: SW-620
TK-10 = test system: TK-10
U-251 = test system: U-251
UACC-257 = test system: UACC-257
UACC-62 = test system: UACC-62
UO-31 = test system: UO-31
XF498 = test system: XF498

SMILES: C[N+](C)(C)CC1CCC/C1=N/O (configuration not stated)
- GI50 (786-0): 22.2 µM (inactive)
- GI50 (A498): > 100 µM (inactive)
- GI50 (A549): > 100 µM (inactive)
- GI50 (ACHN): > 100 µM (inactive)
- GI50 (CCRF-CEM): 17.9 µM (inactive)
- GI50 (COLO 205): 21.5 µM (inactive)
- GI50 (DLD-1): > 100 µM (inactive)
- GI50 (DMS-114): 20 µM (inactive)
- GI50 (DMS-273): 60.7 µM (inactive)
- GI50 (EKVX): > 100 µM (inactive)
- GI50 (HCC 2998): > 100 µM (inactive)
- GI50 (HCT-116): 21.5 µM (inactive)
- GI50 (HCT-15): 20 µM
- GI50 (HL-60): 20.1 µM (inactive)
- GI50 (HOP-18): > 100 µM (inactive)
- GI50 (HOP-62): > 100 µM (inactive)
- GI50 (HOP-92): > 100 µM (inactive)
- GI50 (HT-29): 39.3 µM (inactive)
- GI50 (IGROV-1): > 100 µM (inactive)
- GI50 (K562): 23.7 µM (inactive)
- GI50 (KM-20L2): 17.8 µM (inactive)
- GI50 (KM12): > 100 µM (inactive)
- GI50 (LOX IMVI): 20.6 µM (inactive)
- GI50 (LXFL 529): 54.5 µM (inactive)
- GI50 (M14): > 100 µM (inactive)
- GI50 (M19-MEL): 41 µM (inactive)
- GI50 (MOLT-4): > 100 µM (inactive)
- GI50 (Malme-3M): > 100 µM (inactive)
- GI50 (NCI-H226): > 100 µM (inactive)
- GI50 (NCI-H23): > 100 µM (inactive)
- GI50 (NCI-H460): 50.4 µM (inactive)
- GI50 (NCI-H522): > 100 µM (inactive)
- GI50 (OVCAR-3): > 100 µM (inactive)
- GI50 (OVCAR-4): > 100 µM (inactive)
- GI50 (OVCAR-5): > 100 µM (inactive)
- GI50 (OVCAR-8): 1.86 µM (inactive)
- GI50 (RPMI-8226): 25.7 µM (inactive)
- GI50 (RXF 393): 37.1 µM (inactive)
- GI50 (SF-268): > 100 µM (inactive)
- GI50 (SF-295): > 100 µM (inactive)
- GI50 (SF-539): > 100 µM (inactive)
- GI50 (SK-MEL-28): > 100 µM (inactive)
- GI50 (SK-MEL-2): > 100 µM (inactive)
- GI50 (SK-MEL-5): > 100 µM (inactive)
- GI50 (SK-OV-3): > 100 µM (inactive)
- GI50 (SN12C): > 100 µM (inactive)
- GI50 (SNB-19): > 100 µM (inactive)
- GI50 (SNB-75): > 100 µM (inactive)
- GI50 (SNB-78): > 100 µM (inactive)
- GI50 (SR): 27.7 µM (inactive)
- GI50 (SW-620): 2.62 µM (inactive)
- GI50 (TK-10): > 100 µM (inactive)
- GI50 (U-251): 48.4 µM (inactive)
- GI50 (UACC-257): 43 µM (inactive)
- GI50 (UACC-62): > 100 µM (inactive)
- GI50 (UO-31): > 100 µM (inactive)
- GI50 (XF498): 1.68 µM (inactive)
